Data taken from PMC8286840, “Identifying SARS-CoV-2 antiviral compounds by screening for small molecule inhibitors of Nsp3 papain-like protease” (Biochemical Journal, 2021).
Structures can show the parent of a compound that is named as a salt. Where two headings read alike, the source gives them in different places.

Tests used:
[1] = biological target: T1, SARS-CoV-2 PLpro (nsp3 1564–1878) (Severe acute respiratory syndrome coronavirus 2, UniProt P0DTD1); assay: biochemical; design: FRET-quenched peptide (Pro3) cleavage by PLpro, 10 min pre-incubation, slope over 20 min, normalised to no-compound control; conditions: high concentration screen, read-out: % of control remaining
[2] = biological target: T1, SARS-CoV-2 PLpro (nsp3 1564–1878); assay: biochemical; design: FRET-quenched peptide (Pro3) cleavage by PLpro, 10 min pre-incubation, slope over 20 min, normalised to no-compound control; conditions: low concentration screen, read-out: % of control remaining

SMILES: O=C1C[C@@H](c2ccc(O)cc2)Oc2cc(O)cc(O)c21 [Naringenin]
- remaining activity at 3.75 µM ([1]; Well no.=3326): 98.3%
- remaining activity at 1.25 µM ([2]; Well no.=3326): 96.4%

SMILES: CCC(C)n1ncn(-c2ccc(N3CCN(c4ccc(OC[C@H]5CO[C@](Cn6cncn6)(c6ccc(Cl)cc6Cl)O5)cc4)CC3)cc2)c1=O (mixture of isomers) [Itraconazole]
- remaining activity at 3.75 µM ([1]; Well no.=2228): 94.2%
- remaining activity at 1.25 µM ([2]; Well no.=2228): 96.3%

SMILES: C=C[C@@]1(C)CC(=O)[C@]2(O)[C@@]3(C)[C@@H](O)CCC(C)(C)[C@@H]3[C@H](O)[C@H](OC(C)=O)[C@@]2(C)O1 [Forskolin]
- remaining activity at 3.75 µM ([1]; Well no.=423): 98.9%
- remaining activity at 3.75 µM ([1]; Well no.=3281): 99.2%
- remaining activity at 3.75 µM ([1]; Well no.=8331): 95.4%
- remaining activity at 1.25 µM ([2]; Well no.=423): 99.9%
- remaining activity at 1.25 µM ([2]; Well no.=3281): 99.5%
- remaining activity at 1.25 µM ([2]; Well no.=8331): 98.2%

SMILES: Oc1ncnc2[nH]ncc12 [Allopurinol]
- remaining activity at 3.75 µM ([1]; Well no.=102): 105%
- remaining activity at 3.75 µM ([1]; Well no.=2077): 104%
- remaining activity at 1.25 µM ([2]; Well no.=102): 106%
- remaining activity at 1.25 µM ([2]; Well no.=2077): 104%

SMILES: COCc1nnc(N2CC(Oc3ccc(F)cc3Cl)C2)n1-c1ccc(OC)nc1 [PF-3274167]
- remaining activity at 3.75 µM ([1]; Well no.=7285): 97.3%
- remaining activity at 1.25 µM ([2]; Well no.=7285): 99.6%

SMILES: CC[C@H]1[C@@H](O)[C@@H]2[C@H](CC[C@]3(C)[C@@H]([C@H](C)CCC(=O)O)CC[C@@H]23)[C@@]2(C)CC[C@@H](O)C[C@@H]12 [Obeticholic Acid]
- remaining activity at 3.75 µM ([1]; Well no.=8720): 93%
- remaining activity at 1.25 µM ([2]; Well no.=8720): 90.8%

SMILES: CC(C)(C)c1ccc(S(=O)(=O)Nc2ccc(Cl)cc2C(=O)c2cc[n+]([O-])cc2)cc1 [Vercirnon]
- remaining activity at 3.75 µM ([1]; Well no.=8645): 103%
- remaining activity at 1.25 µM ([2]; Well no.=8645): 103%

SMILES: COc1cc2c3c(c1OC)-c1ccccc1C[C@H]3N(C)CC2 [Nuciferine]
- remaining activity at 3.75 µM ([1]; Well no.=8335): 89%
- remaining activity at 1.25 µM ([2]; Well no.=8335): 95.2%

SMILES: COc1ccc(CN(CCN(C)C)c2ccccn2)cc1 [Mepyramine maleate]
- remaining activity at 3.75 µM ([1]; Well no.=1843): 98.2%
- remaining activity at 1.25 µM ([2]; Well no.=1843): 98.2%

SMILES: C[N+](C)(C)CC(O)CC(=O)[O-] (racemic)
- remaining activity at 3.75 µM ([1]; Well no.=3402): 86.6%
- remaining activity at 1.25 µM ([2]; Well no.=3402): 88.4%

SMILES: COc1ccc(CNc2nc(N3CCC[C@H]3CO)ncc2C(=O)NCc2ncccn2)cc1Cl [Avanafil]
- remaining activity at 3.75 µM ([1]; Well no.=5078): 100%
- remaining activity at 1.25 µM ([2]; Well no.=5078): 101%

SMILES: CC(N)(C(=O)O)c1ccc(C(=O)O)cc1 (racemic) [(RS)-MCPG]
- remaining activity at 3.75 µM ([1]; Well no.=8575): 102%
- remaining activity at 1.25 µM ([2]; Well no.=8575): 109%

SMILES: Cc1ccccc1-n1c(Cn2cnc3c(N)ncnc32)nc2cccc(C)c2c1=O [IC87114]
- remaining activity at 3.75 µM ([1]; Well no.=2945): 97.6%
- remaining activity at 1.25 µM ([2]; Well no.=2945): 98.3%

SMILES: Cc1nc(C(=O)N2CCC[C@H]2Cc2nnc(-c3ccccc3)o2)c(-c2ccccc2F)s1 [SB-674042]
- remaining activity at 3.75 µM ([1]; Well no.=7083): 98.9%
- remaining activity at 1.25 µM ([2]; Well no.=7083): 102%

SMILES: COc1cc2c(cc1OC)[C@@H]1Cc3ccc(OC)c(OC)c3CN1CC2 [Rotundine]
- remaining activity at 3.75 µM ([1]; Well no.=4894): 94.7%
- remaining activity at 1.25 µM ([2]; Well no.=4894): 96.9%

SMILES: Cc1cc(F)c(Nc2ncnc3cc(OCc4ccccc4)ccc23)cc1O [ZM 323881 hydrochloride - 5-((7-Benzyloxyquinazolin-4-yl)amino)-4-fluoro-2-methylphenol hydrochloride]
- remaining activity at 3.75 µM ([1]; Well no.=2538): 92%
- remaining activity at 1.25 µM ([2]; Well no.=2538): 91.5%

SMILES: CC(=O)N1N=C(c2ccc(N)cc2)c2cc3c(cc2C[C@H]1C)OCO3 [Talampanel]
- remaining activity at 3.75 µM ([1]; Well no.=5791): 97.1%
- remaining activity at 3.75 µM ([1]; Well no.=6496): 99.6%
- remaining activity at 1.25 µM ([2]; Well no.=5791): 97.9%
- remaining activity at 1.25 µM ([2]; Well no.=6496): 96.3%

SMILES: O=C(O)c1cc(=O)cc(C(=O)O)[nH]1 [Chelidamic acid]
- remaining activity at 3.75 µM ([1]; Well no.=282): 90.8%
- remaining activity at 1.25 µM ([2]; Well no.=282): 86.7%

SMILES: CCOCC(O)COc1ccc(NC(=O)CC[S+](C)C)cc1 (stereo not shown) [Suplatast tosylate]
- remaining activity at 3.75 µM ([1]; Well no.=4714): 106%
- remaining activity at 1.25 µM ([2]; Well no.=4714): 107%

SMILES: CC(=O)Oc1cc(C(C)C)c(OCCN(C)C)cc1C [Moxisylyte (hydrochloride)]
- remaining activity at 3.75 µM ([1]; Well no.=7424): 97.7%
- remaining activity at 1.25 µM ([2]; Well no.=7424): 94%

SMILES: COc1ccc(C2=N[C@@H](c3ccc(Cl)cc3)[C@@H](c3ccc(Cl)cc3)N2C(=O)N2CCNC(=O)C2)c(OC(C)C)c1 [Nutlin-3]
- remaining activity at 3.75 µM ([1]; Well no.=4621): 108%
- remaining activity at 1.25 µM ([2]; Well no.=4621): 104%

SMILES: CCc1cnn2c(NCc3ccc[n+]([O-])c3)cc(N3CCCC[C@H]3CCO)nc12 [Dinaciclib (SCH727965)]
- remaining activity at 3.75 µM ([1]; Well no.=5081): 105%
- remaining activity at 1.25 µM ([2]; Well no.=5081): 99.7%

SMILES: CC[C@]1(O)C[C@@H]2CN(CCc3c([nH]c4ccccc34)[C@@](C(=O)OC)(c3cc4c(cc3OC)N(C)[C@H]3[C@@](O)(C(=O)OC)[C@H](OC(C)=O)[C@]5(CC)C=CCN6CC[C@]43[C@@H]65)C2)C1 [Vinblastine sulfate salt]
- remaining activity at 3.75 µM ([1]; Well no.=1288): 108%
- remaining activity at 1.25 µM ([2]; Well no.=1288): 111%

SMILES: O=C(CCCN1CCN(c2ccccn2)CC1)c1ccc(F)cc1 [Azaperone]
- remaining activity at 3.75 µM ([1]; Well no.=2163): 103%
- remaining activity at 3.75 µM ([1]; Well no.=6471): 101%
- remaining activity at 1.25 µM ([2]; Well no.=2163): 100%
- remaining activity at 1.25 µM ([2]; Well no.=6471): 102%

SMILES: C[N+](C)(C)CCO [Choline bromide]
- remaining activity at 3.75 µM ([1]; Well no.=93): 97%
- remaining activity at 1.25 µM ([2]; Well no.=93): 93.4%

SMILES: Cc1ccc(/C(=C\CN2CCCC2)c2ccccn2)cc1 [Triprolidine hydrochloride]
- remaining activity at 3.75 µM ([1]; Well no.=1197): 90.1%
- remaining activity at 1.25 µM ([2]; Well no.=1197): 87.7%

SMILES: Nc1nc(-n2cccn2)nc(-n2cccn2)c1Br [Taminadenant]
- remaining activity at 3.75 µM ([1]; Well no.=8565): 90.5%
- remaining activity at 1.25 µM ([2]; Well no.=8565): 99.5%

SMILES: OC[C@H](O)C(O)[C@@H](O)CO [L-Arabinitol]
- remaining activity at 3.75 µM ([1]; Well no.=6789): 93.7%
- remaining activity at 1.25 µM ([2]; Well no.=6789): 93.2%

SMILES: O=[N+]([O-])/C=C/c1ccc2c(c1)OCO2 [Syk Inhibitor III]
- remaining activity at 3.75 µM ([1]; Well no.=2599): 97.6%
- remaining activity at 1.25 µM ([2]; Well no.=2599): 97.9%

SMILES: CN(c1ncccc1CNc1nc(Nc2ccc3c(c2)CC(=O)N3)ncc1C(F)(F)F)S(C)(=O)=O [PF-562271]
- remaining activity at 3.75 µM ([1]; Well no.=2699): 100%
- remaining activity at 1.25 µM ([2]; Well no.=2699): 97.1%

SMILES: NCC(CC(=O)O)c1ccc(Cl)cc1 (racemic)
- remaining activity at 3.75 µM ([1]; Well no.=31): 97.2%
- remaining activity at 1.25 µM ([2]; Well no.=31): 96.2%

SMILES: O=C(Nc1ccccc1)[C@@]12C[C@@H]1/C(=N\O)c1ccccc1O2 [PHCCC]
- remaining activity at 3.75 µM ([1]; Well no.=8571): 105%
- remaining activity at 1.25 µM ([2]; Well no.=8571): 107%

SMILES: CC(=O)c1c(C)c2cnc(Nc3ccc(N4CCNCC4)cn3)nc2n(C2CCCC2)c1=O [Palbociclib (isethionate)]
- remaining activity at 3.75 µM ([1]; Well no.=7316): 103%
- remaining activity at 1.25 µM ([2]; Well no.=7316): 103%
